The NIST ThermoML archive (doi:10.1021/acs.jced.8b01200)
Numbers after ± are expanded uncertainties.

Legend:
[1] = Crystal; DSC
[2] = Molar enthalpy of transition or fusion; settings: Crystal; DSC

Triple point temperature [1]	Molar enthalpy of transition or fusion [2]	Compound
314.4 ± 2.4 K	2.85 ± 0.454 kcal/mol	CC(C)[C@@H]1CC[C@@H](C)C[C@H]1O [L-menthol]
343.8 ± 1.4 K	44 ± 0.884 kcal/mol	CCCCCCCCCCCCCCCCCC(=O)OCC(COC(=O)CCCCCCCCCCCCCCCCC)OC(=O)CCCCCCCCCCCCCCCCC [glycerol trioctadecanoate]

The next lines start with the compound.

Compound	Triple point temperature [1]	Molar enthalpy of transition or fusion [2]
Cc1ccc(C(C)C)c(O)c1 [3-methyl-6-isopropylphenol]	321.9 ± 1.4 K	3.11 ± 0.502 kcal/mol
CCCCCCCCCCCCCCCC(=O)OCC(COC(=O)CCCCCCCCCCCCCCC)OC(=O)CCCCCCCCCCCCCCC [1,2,3-propanetriyl tri(hexadecanoate)]	336.8 ± 1.4 K	37.9 ± 0.789 kcal/mol
CCCCCCCCCCCCCC(=O)OCC(COC(=O)CCCCCCCCCCCCC)OC(=O)CCCCCCCCCCCCC [1,2,3-propanetriyl tri(tetradecanoate)]	329.4 ± 1.4 K	34.5 ± 0.741 kcal/mol
